# Measurements as given in PMC5226424 (Biochemistry, 2016).
# Target: T1, carboxyltransferase from S. aureus (SaCT) (Staphylococcus aureus, UniProt Q2FXM7+Q5HF73)
# T1 sequence (Q2FXM7 1-314): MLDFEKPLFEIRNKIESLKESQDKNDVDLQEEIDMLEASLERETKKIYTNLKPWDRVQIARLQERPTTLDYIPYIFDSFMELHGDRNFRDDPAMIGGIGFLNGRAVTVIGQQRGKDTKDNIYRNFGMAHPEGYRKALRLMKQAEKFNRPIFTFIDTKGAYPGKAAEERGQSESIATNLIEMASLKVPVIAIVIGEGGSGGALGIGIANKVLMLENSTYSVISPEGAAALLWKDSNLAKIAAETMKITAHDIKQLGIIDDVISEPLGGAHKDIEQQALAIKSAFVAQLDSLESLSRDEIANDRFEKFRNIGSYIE
# T1 sequence (Q5HF73 1-285): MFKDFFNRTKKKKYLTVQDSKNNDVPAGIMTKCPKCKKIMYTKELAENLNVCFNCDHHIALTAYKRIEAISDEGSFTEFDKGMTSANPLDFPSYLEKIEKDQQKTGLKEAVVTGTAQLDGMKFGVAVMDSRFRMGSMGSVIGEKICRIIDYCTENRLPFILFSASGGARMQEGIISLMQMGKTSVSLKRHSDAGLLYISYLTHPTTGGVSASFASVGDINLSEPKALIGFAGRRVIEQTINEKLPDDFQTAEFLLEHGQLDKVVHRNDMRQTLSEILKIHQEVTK
# Assay: coupled citrate synthase / malate dehydrogenase assay at […] nm, reverse direction
# Assay type: biochemical
# Conditions: 150 μM malonyl-CoA, 6 mM biocytin, pH 8.0
structure (smiles),measurement,value
"C[C@H]1CC(=O)NC1=O [compound 4, (3S)-Methyl-pyrrolidine-2,5-dione]",% decrease in activity at 50 nM,65%
